According to US6447748B1, “Benzamide compounds for cancer imaging and therapy” (Research Corporation Technologies, Inc., priority 1993, dated 2002):
Read-outs that look alike come from different tables or passages of the source.

Experiments:
[1] = test system: Sigma-1 sites, MCF-7 breast adenocarcinoma
[2] = biological target: sigma sites labeled by 4-[125I]PEMP in guinea pig brain membranes; assay type: binding; conditions: read-out: Ki against 4-[125I]PEMP
Procedure: Intact adherent cells were washed (2×1 mL) with 10 mM phosphate buffer (pH=7.2). […] Each data point represent an average of three values. The cells were incubated at 37° C. for 1 hr. and subsequently washed with phosphate buffer (10 mM; pH 7.2) (3×1 mL). The cells were then dissolved in 0.2 N NaOH (1.0 mL) and the activity counted on a Beckman (DP 5500) Gamma Counter. A similar procedure was repeated with 2-[^125I]BP with MCF-7, MDA-MB 231 and T47D breast cancer cells.
The affinity of compounds for sites labeled by 4-[^125I]PEMP was determined by homologous and heterologous in vitro competitive binding assays in intact MCF-7 breast cancer cells and guinea pig brain membranes labeled by 4-[^125I]PEMP. The assays were prepared according to the procedure described in Example 14.

Sigma-1 = Sigma-1 (Cavia porcellus, UniProt Q60492); assay: Sigma-1 binding assay, guinea pig brain membranes, [3H]-(+)-pentazocine (Example 9)
Procedure: A plasma membrane-mitochondrial (P2) membrane fraction was prepared from frozen guinea pig brains (Pel-Freeze, Rogers, Ak.), minus cerebellum. The brain tissue was thawed slowly before homogenization. A crude P2 membrane fraction was also prepared from the livers of Sprague-Dawley rats (150-220 g, Taconic Farms). The animals were decapitated and their livers were minced and homogenized. The tissue homogenization was carried out at 4° C. in 10 mM tris-HCl/0.32 M sucrose, pH=7.4 using 10 motor-driven strokes in a Potter-Elvehjem Teflon glass homogenizer. The crude homogenate was centrifuged for 10 min at 1000 g and the crude nuclear (P1) pellet was discarded. Supernatants were centrifuged at 31000×g for 15 min to yield a plasma membrane-mitochondrial pellet (P2). This pellet was resuspended in 3 ml/g in 10 mM tris-HCl, pH 7.4 and used for binding studies. Protein concentrations were determined by the method of Lowry.
Filters were washed twice with ice-cold 10 mM tris-HCL. Prior to use, filters were soaked in 0.5% polyethyleneimine for about 30 min at 25° C.
When the assay was terminated, the membranes were filtered and the filtrate washed twice as above. The radioactivity was counted in Ecoscint (National Diagnostics, Manville, N.J.) after an overnight extraction of counts.
Ki values were calculated from the IC50 values using Cheng-Prusoff equation.

[3] = biological target: MUSC (muscarinic receptors); assay type: binding; conditions: read-out: Ki MUSC RAT BRAIN [3H]QNB
Sigma-2 = biological target: T1, Sigma-2 (Rattus norvegicus, UniProt Q5U3Y7); assay: Sigma-2 binding assay, rat liver membranes, [3H]DTG + dextrallorphan (Example 9)
T1 sequence (Q5U3Y7 1-176): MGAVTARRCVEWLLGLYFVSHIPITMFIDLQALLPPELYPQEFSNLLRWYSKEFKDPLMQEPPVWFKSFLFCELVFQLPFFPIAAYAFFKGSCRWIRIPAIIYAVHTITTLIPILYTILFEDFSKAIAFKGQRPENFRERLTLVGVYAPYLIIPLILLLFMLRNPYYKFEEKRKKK

DOPAMINE D-2 = biological target: T2, DOPAMINE D-2 (Rattus norvegicus, UniProt P61169); assay: Dopamine D-2 binding, rat brain, [3H]-(−)-sulpiride; conditions: Table 2 of Example 9
T2 construct: from tissue

PCP = PCP binding, rat brain, [3H]TCP; conditions: Table 2 of Example 9
[4] = biological target: T3, sigma sites labeled by 4-[125I]BP in MCF-7 breast cancer cells (Homo sapiens, UniProt Q5BJF2); assay: Homologous and heterologous competition for 4-[125I]BP binding in intact MCF-7 cells; conditions: 37° C. for 1 hr., unit printed in b378 only, not in the table
T3 construct: Intact adherent cells were washed (2×1 mL) with 10 mM phosphate buffer; endogenous in cells; host or cells: intact adherent MCF-7 breast cancer cells

[5] = for Biodistribution Blood / Biodistribution Bone / Biodistribution Brain / Biodistribution Gonads / Biodistribution Heart / Biodistribution Kidney / Biodistribution Liver / Biodistribution Lunq / Biodistribution Muscle / Biodistribution Spleen / Biodistribution Thyroid: Wistar male rats, average of four rats
Procedure: Male Wistar rats (200-230g), while under anesthesia, were injected intravenously with 0.1 ml of a saline solution containing 20% ethanol solution of 4-[^125I]BP (4-5 μCi). At 1, 4, 6 and 24 hr. after injection, blood samples were collected by cardiac puncture and the […] were sacrificed immediately thereafter by cardiectomy while under anesthesia. The organs of interest were subsequently excised, blotted with tissue paper, weighed, and the radioactivity was counted using a Packard automatic counter (autogamma 5650). The % injected dose/g (% ID/g) values were determined by comparison of tissue radioactivities with suitably diluted aliquots of the injected 4-[^125I]BP dose divided by the weight of the organ.

[6] = Biodistribution of 4-[125I]PEMP in Sprague Dawley rats; assay type: in vivo; conditions: for Biodistribution Blood / Biodistribution Bone / Biodistribution Brain / Biodistribution Heart / Biodistribution Kidney / Biodistribution Liver / Biodistribution Lung / Biodistribution Muscle / Biodistribution Spleen / Biodistribution Thyroid: average of four rats
Procedure: Balb/c nu/nu mice (17-22 g) were injected intravenously with 0.2 ml of a saline solution containing [^125I]PAB (5-6 μCi). […] The values obtained were normalized to a mouse weighing 20 g.
Biodistribution experiments were performed to assess the clearance of N-[(4-[^125I]-iodophenyl)ethyl]-N-methyl-2-(1-piperidinyl)-ethylamine, 4-[^125I]PEMP. The compound was prepared according to the procedure described in Example 16. For in vivo studies, Sprague Dawley rats were used. Animal biodistribution assays were performed according to the procedure described in Example 11.

[7] = biological target: Sigma-1 sites, T47D breast ductal carcinoma
[8] = test system: human melanoma xenograft tumors (A2058); assay: Scintigraphic imaging of nude mice bearing human melanoma xenografts; assay type: in vivo, Balb/c nu/nu mice
Procedure: A2058 cells, derived from a brain metastasis of human malignant melanoma (Todaro et al. 1980 Proc. Natl. Acad. Sci. USA 77: 5258) were obtained from the National Institutes of Health. A human lung adenocarcinoma cell line, NCI-838, was obtained from the National Cancer Institute. These cells were grown in DMEM2 medium (Dulbecco's modification of Eagle's medium, […]) supplemented with 10% fetal bovine serum and 0.03% L-glutamine.
Balb/c nu/nu mice (17-22 g) bearing human melanoma or non-small cell lung carcinoma xenograft tumors were injected intravenously with 0.2 ml of saline solution containing [^131I]PAB or [^131I]DAB (150-200 μCi). The animals were anesthetized with ketamine containing rompun before the imaging studies. The images were obtained using a scintigraphic camera with a pin-hole collimator at 6 and 24 hr. post injection.

[9] = read-out: Ki SIGMA-1 GUINEA PIG BRAIN [3H]-(+)-PENT, Table 2 of Example 9, 120 min at 25° C.
[10] = read-out: Ki SIGMA-2 RAT LIVER [3H]DTG + DEX, Table 2 of Example 9

T3 sequence (Q5BJF2 whole entry): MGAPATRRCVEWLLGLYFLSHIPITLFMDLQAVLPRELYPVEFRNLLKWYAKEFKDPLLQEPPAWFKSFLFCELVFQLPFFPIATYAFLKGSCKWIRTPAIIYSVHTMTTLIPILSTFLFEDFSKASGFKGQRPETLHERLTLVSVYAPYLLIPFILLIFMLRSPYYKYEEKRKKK
Sequence of Sigma-1 (Q60492 whole entry): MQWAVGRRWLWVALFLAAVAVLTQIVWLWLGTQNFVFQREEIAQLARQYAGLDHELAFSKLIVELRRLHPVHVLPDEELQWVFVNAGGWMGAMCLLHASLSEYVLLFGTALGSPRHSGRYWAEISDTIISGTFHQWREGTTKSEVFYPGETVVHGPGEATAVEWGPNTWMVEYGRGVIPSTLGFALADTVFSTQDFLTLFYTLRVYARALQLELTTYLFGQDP
T2 sequence (P61169 whole entry): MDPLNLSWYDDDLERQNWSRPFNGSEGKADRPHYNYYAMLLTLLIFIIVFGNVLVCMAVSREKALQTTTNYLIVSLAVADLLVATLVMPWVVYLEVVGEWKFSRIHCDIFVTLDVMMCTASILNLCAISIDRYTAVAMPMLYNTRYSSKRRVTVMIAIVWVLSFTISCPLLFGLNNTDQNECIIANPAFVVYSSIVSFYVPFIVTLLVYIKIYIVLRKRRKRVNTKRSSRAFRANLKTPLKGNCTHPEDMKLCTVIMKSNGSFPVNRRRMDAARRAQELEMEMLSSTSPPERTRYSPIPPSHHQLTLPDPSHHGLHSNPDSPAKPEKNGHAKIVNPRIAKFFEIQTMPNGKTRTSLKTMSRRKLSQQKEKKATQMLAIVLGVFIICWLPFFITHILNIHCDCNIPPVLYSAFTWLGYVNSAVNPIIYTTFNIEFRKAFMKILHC

## CC(C)=CCN1CCC2(C)c3cc(O)ccc3CC1C2C (single isomer, unassigned; (+)) [(+)-Pentazocine]
[1]
  specific binding to sigma-1 sites: little or no specific binding
[2]
  Ki: 0.0359 µM

## O=C(NC1CCN(Cc2ccccc2)CC1)c1ccccc1I [2-IBP, (N-Benzylpiperidin-4-yl)-2-iodobenzamide]
Sigma-1; [9]
  Ki: 0.00164 ± 0.00015 µM
[3]
  Ki: > 100 µM
Sigma-2; [10]
  Ki: 0.0296 ± 0.00049 µM
DOPAMINE D-2
  Ki: 0.0634 ± 0.0108 µM
PCP
  Ki: > 100 µM

## O=C(NC1CCN(Cc2ccccc2)CC1)c1cccc(I)c1 [3-IBP, (N-Benzylpiperidin-4-yl)-3-iodobenzamide]
Sigma-1; [9]
  Ki: 0.00302 ± 0.00106 µM
[3]
  Ki: > 100 µM
Sigma-2; [10]
  Ki: 0.0846 ± 0.0025 µM
DOPAMINE D-2
  Ki: 0.0248 ± 2e-05 µM
PCP
  Ki: > 100 µM

## O=C(NC1CCN(Cc2ccccc2)CC1)c1ccc(I)cc1 [4-IBP, (N-Benzylpiperidin-4-yl)-4-iodobenzamide]
[4]
  Ki: 0.0048 ± 0.002 µM
[3]
  Ki: > 100 µM
Sigma-2; [10]
  Ki: 0.0252 ± 0.00128 µM
DOPAMINE D-2
  Ki: 0.382 ± 0.039 µM
PCP
  Ki: > 100 µM

## CN(CCc1ccc(I)cc1)CCN1CCCCC1 [4-IPEMP, N-[(4-I-iodophenyl)ethyl]-N-methyl-2-(1-piperidinyl)-ethylamine]
Sigma-1
  Ki: 0.00702 µM
Sigma-2
  Ki: 0.0526 µM

## O=C(NC1CCN(Cc2ccccc2)CC1)c1ccc([125I])cc1 [4-[^125I]BP, ^125I-(N-Benzylpiperidin-4-yl)-4-iodobenzamide]
[5]; 1 hr.
  Biodistribution Blood: 0.04 ± 0.00 % ID/g
  Biodistribution Bone: 0.24 ± 0.01 % ID/g
  Biodistribution Brain: 1.24 ± 0.13 % ID/g
  Biodistribution Gonads: 0.39 ± 0.03 % ID/g
  Biodistribution Heart: 0.75 ± 0.05 % ID/g
  Biodistribution Kidney: 2.10 ± 0.15 % ID/g
  Biodistribution Liver: 4.77 ± 0.13 % ID/g
  Biodistribution Lunq: 5.05 ± 0.26 % ID/g
  Biodistribution Muscle: 0.24 ± 0.02 % ID/g
  Biodistribution Spleen: 1.60 ± 0.10 % ID/g
  Biodistribution Thyroid: 0.07 ± 0.01 % ID/g
[5]; 4 hr.
  Biodistribution Blood: 0.02 ± 0.00 % ID/g
  Biodistribution Bone: 0.24 ± 0.05 % ID/g
  Biodistribution Brain: 1.29 ± 0.05 % ID/g
  Biodistribution Gonads: 0.30 ± 0.02 % ID/g
  Biodistribution Heart: 0.74 ± 0.04 % ID/g
  Biodistribution Kidney: 2.05 ± 0.02 % ID/g
  Biodistribution Liver: 7.76 ± 0.36 % ID/g
  Biodistribution Lunq: 5.22 ± 0.78 % ID/g
  Biodistribution Muscle: 0.20 ± 0.02 % ID/g
  Biodistribution Spleen: 1.51 ± 0.19 % ID/g
  Biodistribution Thyroid: 0.12 ± 0.00 % ID/g
[5]; 6 hr.
  Biodistribution Blood: 0.04 ± 0.00 % ID/g
  Biodistribution Bone: 0.44 ± 0.03 % ID/g
  Biodistribution Brain: 1.23 ± 0.08 % ID/g
  Biodistribution Gonads: 0.34 ± 0.01 % ID/g
  Biodistribution Heart: 0.75 ± 0.02 % ID/g
  Biodistribution Kidney: 2.10 ± 0.08 % ID/g
  Biodistribution Liver: 7.20 ± 0.40 % ID/g
  Biodistribution Lunq: 4.85 ± 0.17 % ID/g
  Biodistribution Muscle: 0.12 ± 0.02 % ID/g
  Biodistribution Spleen: 1.57 ± 0.12 % ID/g
  Biodistribution Thyroid: 0.23 ± 0.05 % ID/g
[5]; 24 hr.
  Biodistribution Blood: 0.02 ± 0.00 % ID/g
  Biodistribution Bone: 0.47 ± 0.07 % ID/g
  Biodistribution Brain: 1.24 ± 0.06 % ID/g
  Biodistribution Gonads: 0.34 ± 0.01 % ID/g
  Biodistribution Heart: 0.65 ± 0.03 % ID/g
  Biodistribution Kidney: 1.54 ± 0.05 % ID/g
  Biodistribution Liver: 5.37 ± 0.53 % ID/g
  Biodistribution Lunq: 3.70 ± 0.38 % ID/g
  Biodistribution Muscle: 0.12 ± 0.01 % ID/g
  Biodistribution Spleen: 1.47 ± 0.28 % ID/g
  Biodistribution Thyroid: 0.29 ± 0.04 % ID/g
[5]; Wistar rats
  clearance from the blood pool: cleared quickly
[5]; Wistar rats, retained in the brain after 24 hours
  crossing of the blood brain barrier: crossed the blood brain barrier
[5]; rat, in vivo
  in vivo dehalogenation (thyroid activity after 24 hours): no in vivo dehalogenation

## CN(CCc1ccc([125I])cc1)CCN1CCCCC1 [4-[^125I]PEMP, N-[(4-[^125I]-iodophenyl)ethyl]-N-methyl-2-(1-piperidinyl)-ethylamine]
[6]
  clearance: rapid clearance from the liver, lungs and kidneys
[6]; 1 hr.
  Biodistribution Blood: 1.82 ± 0.20 % ID/whole organ
  Biodistribution Bone: 0.23 ± 0.00 % ID/whole organ
  Biodistribution Brain: 1.79 ± 0.21 % ID/whole organ
  Biodistribution Heart: 0.30 ± 0.02 % ID/whole organ
  Biodistribution Kidney: 4.57 ± 0.88 % ID/whole organ
  Biodistribution Liver: 16.56 ± 2.19 % ID/whole organ
  Biodistribution Lung: 4.91 ± 0.23 % ID/whole organ
  Biodistribution Muscle: 15.60 ± 3.04 % ID/whole organ
  Biodistribution Spleen: 2.52 ± 0.49 % ID/whole organ
  Biodistribution Thyroid: 0.19 ± 0.02 % ID/whole organ
[6]; 6 hr.
  Biodistribution Blood: 2.59 ± 0.32 % ID/whole organ
  Biodistribution Bone: 0.28 ± 0.01 % ID/whole organ
  Biodistribution Brain: 0.57 ± 0.01 % ID/whole organ
  Biodistribution Heart: 0.18 ± 0.00 % ID/whole organ
  Biodistribution Kidney: 1.45 ± 0.03 % ID/whole organ
  Biodistribution Liver: 6.39 ± 0.48 % ID/whole organ
  Biodistribution Lung: 1.22 ± 0.12 % ID/whole organ
  Biodistribution Muscle: 11.73 ± 0.63 % ID/whole organ
  Biodistribution Spleen: 0.96 ± 0.10 % ID/whole organ
  Biodistribution Thyroid: 0.20 ± 0.05 % ID/whole organ
[6]; 24 hr.
  Biodistribution Blood: 1.01 ± 0.12 % ID/whole organ
  Biodistribution Bone: 0.17 ± 0.00 % ID/whole organ
  Biodistribution Brain: 0.23 ± 0.00 % ID/whole organ
  Biodistribution Heart: 0.05 ± 0.00 % ID/whole organ
  Biodistribution Kidney: 0.50 ± 0.02 % ID/whole organ
  Biodistribution Liver: 1.83 ± 0.16 % ID/whole organ
  Biodistribution Lung: 0.34 ± 0.03 % ID/whole organ
  Biodistribution Muscle: 5.55 ± 1.25 % ID/whole organ
  Biodistribution Spleen: 0.28 ± 0.03 % ID/whole organ
  Biodistribution Thyroid: 0.58 ± 0.03 % ID/whole organ

## CCCN1CCC[C@H](c2cccc(O)c2)C1 [(+)-PPP]
[4]
  Ki: > 1 µM

## CN(CCc1ccc(Br)cc1)CCN1CCCCC1 [Br-PEMP, N-[2-(4-Bromophenyl)ethyl]-N-methyl-2-(1-piperidinyl)ethylamine]
Sigma-1
  Ki: 0.00627 µM
Sigma-2
  Ki: 0.0518 µM

## O=C(CCCN1CCC2(CC1)C(=O)NCN2c1ccccc1)c1ccc(F)cc1 [Spiperone]
[4]
  Ki: 0.247 ± 0.037 µM

## CC(C)=CCN1CC[C@]2(C)c3cc(O)ccc3C[C@H]1[C@H]2C [[^3H] (+)-pentazocine]
[7]; read-out: Kd1 Sigma-1
  Kd: 0.00662 µM
[7]; read-out: Kd4 Sigma-1
  Kd: 0.261 µM
[1]
  specific binding to sigma-1 sites: No specific binding

## CCN(CC)CCNC(=O)c1ccc([131I])cc1 [[^131I]DAB, ^131I-N-(diethylaminoethyl)4-iodobenzamide, reference compound]
[8]; 6 and 24 hrs. post injection
  detection in the tumor, scintigraphic image: no [^131I]DAB was detected in the tumor
[8]; 6 and 24 hrs. post-administration
  uptake in the liver, scintigraphic image: considerable uptake
